Test results reported in patent US20250270615A1, “METHOD FOR DETECTING THE MICROBIAL GROWTH POTENTIAL OF AN ANTISCALANT COMPOSITION IN NATURAL SEAWATER” (ACWA POWER Company, priority 2024, published 2025).

Tested on: autochthonous seawater bacteria
Assay: Bacterial growth potential of antiscalants in natural seawater with an autochthonous bacterial population (flow cytometry)
Type: cell-based
Details: 50 mg L^−1 antiscalant, Red Sea water, 30° C. dark, 8 days, one-tail Wilcoxon signed-rank test
Description: The natural seawater was serially filtered to remove microbial cells and to set a desired low initial cell concentration for the growth potential assay within approximately 10,000 to 20,000 bacterial cells mL^−1. This seawater was used in the method of the present disclosure.
Natural seawater (1.0 L) was serially filtered through pre-cleaned 0.45 μm pore size and 0.2 μm pore size polyethersulfone filters (Satorius Stedium Minisart). The filters were replaced every 100 mL.
30 mL of the resulting filtered seawater with a bacterial cell concentration of 21,000±1200 cells mL^−1 was added to AOC-free 40 mL borosilicate glass vials with screw caps containing PTFE-lined silicone septa.
Antiscalants from the 8 stock solutions (3 g L^−1) were added to 8 vials to obtain 8 mixtures comprising the antiscalant at a final concentration of 50 mg L^−1.
Vials with no antiscalant addition were included as a control.
The vials were incubated at 30° C. in the dark and bacterial growth was determined by measuring cell concentrations over time using flow cytometry. Each growth potential test was conducted in three independent biological replicates.
Flow cytometry (FCM) was used to measure the bacterial cell concentration in the vials at an interval of 24 h.
To this end, 5.0 μL SYBR Green I (Invitrogen, 100× diluted in 10 mM Tris buffer pH=8.1) were added to a final 0.5 mL vial samples in amber microfuge tubes followed by mixing and incubation for 10 min in the dark at 35° C.
Stained cells were measured with a BD Accuri C6 instrument in fixed 50 μL volume mode with a sample flow rate of 35 μL min^−1. The blue 488 nm laser (50 mW) was used to collect the green fluorescence at FL1=533 30 nm, the red fluorescence FL3>670 nm, as well as intrinsic cell parameters were given by the side scattered (SSH) and forward scattered (FSH) light signals. Electronic gating was used to separate positive microbial stained signals from instrument, and water background noise as described by Prest et al. (2013).
The instrument performance was verified using Spherotech 8-peak validation beads. […]

Q: Which “bacterial growth compared to reference without antiscalant” value does the source give for `O=P(O)(O)CN(CP(=O)(O)O)CP(=O)(O)O` [ATMP, amino trimethylene phosphonic acid] here?
A: promoted bacterial growth

Q: `O=P(O)(O)CN(CCCCCCN(CP(=O)(O)O)CP(=O)(O)O)CP(=O)(O)O` [HDTMP, hexamethylenediamine-tetra(methylenephosphonic acid)] was tested. Which “bacterial growth compared to reference without antiscalant” value did it give?
A: promoted bacterial growth

Q: For `CC(O)(P(=O)(O)O)P(=O)(O)O` [HEDP, 1-hydroxyethylidene-(1,1-diphosphonic acid)], which “bacterial growth compared to reference without antiscalant” value is on record?
A: did not promote bacterial growth
